According to patent US20260176289A1, “SMALL MOLECULE INHIBITORS OF KRAS PROTEINS” (Merck Sharp & Dohme LLC, priority 2022, published 2026):
Where two headings read alike, the source gives them in different places.

Columns and labels:
KRAS-WT = KRAS-WT (Homo sapiens, UniProt P01116); experiment: SOS-catalyzed nucleotide exchange assay (Procedure A, TR-FRET), KRAS-WT; type: biochemical
From the text: (§1) Procedure for SOS-Catalyzed Nucleotide Exchange Assay for KRAS-WT, G12C/D/V, G13D, HRAS, and NRAS (Procedure A)
(§2) Recombinant KRAS-G12C protein used in this assay has an additional triple mutation (C51S/C80L/C118S). Whereas KRAS-WT, G12D/V, G13D, HRAS and NRAS are in context of their WT protein sequence background. Specifically, the SOS-catalyzed nucleotide exchange assay utilizes a preformed TR-FRET complex containing a specific biotinylated RAS protein (KRAS-WT, G12C/V/D, G13D, HRAS, NRAS; described above) with Bodipy-GDP, and Terbium-streptavidin. Compounds are preincubated with this complex for 60 minutes. Subsequently, recombinant human SOS protein and unlabeled GTP are added to initiate the exchange reaction. Small molecule inhibitors stabilize the Bodipy-GDP complex whereas the untreated protein rapidly exchanges Bodipy-GDP for unlabeled GTP resulting in reduced TR-FRET signal.
(§3) To assemble the preformed TR-FRET complexes, each biotinylated RAS protein is diluted to 2 μM in an EDTA Buffer (20 mM HEPES pH 7.5, 50 mM sodium chloride, 10 mM EDTA, and 0.01% Tween) and incubated at room temperature for one hour. This mixture is then further diluted to 90 nM in an Assay Buffer (20 mM HEPES pH 7.5, 150 mM sodium chloride, 10 mM magnesium chloride, and 0.005% Tween) containing 15 nM of Terbium-Streptavidin (Invitrogen, catalog #PV3577) and 900 nM of Bodipy-GDP (Invitrogen, catalog #G22360) and incubated at room temperature for six hours. It should be noted that this preformed TR-FRET complex for each of the RAS protein were made ahead of time, aliquoted and stored at −80° C. until the day of the experiment.
(§4) Each test compound (10 mM stock in DMSO) is diluted in DMSO to make a final-10-point, 3-fold dilution and is acoustically dispensed into a 384-well assay plate (Corning, catalog #3820) using an Echo 550 (Labcyte). Each well of the assay plate receives 3 μL of a specific 3×RAS preformed TR-FRET complex and 3 μL of Assay Buffer and is incubated at room temperature for 60 minutes (preincubation time). Each well then receives 3 μL of 3×recombinant human SOS protein and GTP (Sigma, G8877) in Assay Buffer and is incubated at room temperature for 30 minutes (G13D), 60 minutes (KRAS WT/G12C/D, H/NRAS) or 90 minutes for G12V. The final reaction in each well of 9 μL consists of 3 mM GTP, specific Ras and SOS proteins in the following concentrations: KRAS-G12C/SOS=3 nM/40 nM, KRAS-WT and G12D/SOS=1 nM/40 nM, KRAS-G12V/SOS=1.25 nM/160 nM. KRAS-G13D/SOS=1.25 nM/0 nM, HRAS and NRAS=1.25 nM/40 nM.
(§5) The time-resolved fluorescence resonance energy transfer (TR-FRET) signal is measured on an Envision (PerkinElmer) plate reader: Excitation filter=340 nm; emission 1=495 nm; emission2=520 nm; dichroic mirror=D400/D505; delay time=[…]. The signal of each well is determined as the ratio of the emission at 520 nm to that at 495 nm. Percent effect of each well is determined after normalization to control wells containing DMSO (no effect) or a saturating concentration of inhibitor (max effect). The apparent effect as a function of compound concentration is fit to a four-parameter logistic equation.

KRAS-G12D = KRAS-G12D (Homo sapiens, UniProt P01116, G12D); experiment: SOS-catalyzed nucleotide exchange assay (Procedure A, TR-FRET), KRAS-G12D; type: biochemical
From the text: as §1, §2, §3, §4, §5

KRAS-G12V = KRAS-G12V (Homo sapiens, UniProt P01116, G12V); experiment: SOS-catalyzed nucleotide exchange assay (Procedure A, TR-FRET), KRAS-G12V; type: biochemical
From the text: as §1, §2, §3, §4, §5

AsPC-1 cells = experiment: Cellular phospho-ERK assay, AsPC-1 cells (homozygous KRAS-G12D); type: cell-based; conditions: Homo sapiens, read-out: AsPC1 pERK IC50
Experimental: Procedure for Cellular Phospho-ERK Assay in KRAS Wild Type and Mutant (G12D, G12V) Cell Lines
MKN-1 cells (JCRB JCRB0252) containing amplified wild-type KRAS, were cultured in growth medium that contains RPMI 1640-GlutaMAX™-I (ThermoFisher Scientific 61870) containing 10% heat inactivated fetal bovine serum (ThermoFisher Scientific 10091148), 1 mM sodium pyruvate and 10 mM HEPES. PANC08.13 cells (ATCC® CRL-2551™), containing homozygous KRAS-G12D activating mutation, were cultured in growth medium made of RPMI1640-GlutaMAX™-I (ThermoFisher Scientific 61870) containing 15% heat inactivated fetal bovine serum (ThermoFisher Scientific 10091148)). AsPC-1 cells (ATCC® CRL-1682™), containing homozygous KRAS-G12D activating mutation, were cultured in T150 flask in growth medium (RPMI medium 1640-GlutaMAX™-I (ThermoFisher Scientific 61870) containing 10% fetal bovine serum (ThermoFisher Scientific 10091148)). SW620 cells (ATCC® […]), containing homozygous KRAS-G12V activating mutation, were cultured in growth medium that contains RPMI 1640-GlutaMAX™-I (ThermoFisher Scientific 61870) containing 10% heat inactivated fetal bovine serum (ThermoFisher Scientific 10091148).
Cells for the assay were harvested in growth medium after TrypLE (ThermoFisher scientific 12604021) digestion and were seeded in a 384-well collagen coated cell culture plate (Corning 356702) at a density of 10,000-15,000 cells/20 μL/well, and incubated at 37° C., 5% CO2 overnight. The compound (with 10 mM stock concentration) dose-response titrations were prepared [30 μM final ERK detection assay concentration and 1:3 dilutions, 10-point dose response] and appropriate amounts (270 nL) of test compounds were dispensed in a 384-well intermediate plate using an Echo 550 liquid handler. 30 μL/well of RPMI medium 1640-GlutaMAX™—I was added to the intermediate plate and the contents of the intermediate plate (10 μL/well) were then transferred to the 384-well collagen coated cell culture plate, which was incubated at 37° C., 5% CO2 for 2 hours. After removal of medium from the collagen coated cell culture plate, cells were lysed in lysis buffer from Alpha SureFire® Ultra™ Multiplex p-ERK and total ERK assay kit (PerkinElmer MPSU-PTERK) containing Halt™ Protease and Phosphatase inhibitor cocktail (ThermoFisher Scientific 78446) at room temperature with constant shaking at 300 rpm for 30 minutes. The cell lysates were then transferred to an OptiPlate-384 plate (PerkinElmer 6005620), and the phosphorylation of ERK (p-ERK) and total ERK levels were detected by Alpha SureFire® Ultra™ Multiplex p-EEK kit and total ERK assay kit (PerkinElmer MPSU-PTERK) following the manufacturer's protocol. Assay plates were read on a En Vision Multimode Plate Reader (PerkinElmer), and the ratio of p-ERK vs. total ERK in each well was used as the final readout. Dose response curves were analyzed using a 4-parameter logistic model to calculate IC50 values using Spotfire software.

[1] = nucleotide exchange, read-out: KRAS WT GNE IC50
[2] = nucleotide exchange, read-out: KRAS G12D GNE IC50
[3] = nucleotide exchange, read-out: KRAS G12V GNE IC50
[4] = KRAS G12D GNE IC50, nucleotide exchange
[5] = KRAS G12V GNE IC50, nucleotide exchange
[6] = ASPC1, 2 h, 2 hours compound incubation

KRAS-G12V, sequence (P01116 with tags, fused parts or gaps isoform P01116-2 G12V): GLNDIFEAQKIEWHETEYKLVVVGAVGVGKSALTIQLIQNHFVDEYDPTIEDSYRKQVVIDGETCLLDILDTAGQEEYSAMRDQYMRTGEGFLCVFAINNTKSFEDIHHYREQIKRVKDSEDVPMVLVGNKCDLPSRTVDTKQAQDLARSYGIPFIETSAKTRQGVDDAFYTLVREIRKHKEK
KRAS-WT, sequence (P01116 with tags, fused parts or gaps isoform P01116-2): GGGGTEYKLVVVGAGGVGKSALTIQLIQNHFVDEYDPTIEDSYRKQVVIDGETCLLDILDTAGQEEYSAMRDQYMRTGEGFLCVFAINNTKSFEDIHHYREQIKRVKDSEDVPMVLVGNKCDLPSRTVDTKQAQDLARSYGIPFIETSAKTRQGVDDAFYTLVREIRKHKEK
KRAS-G12D, sequence (P01116 with tags, fused parts or gaps isoform P01116-2 G12D): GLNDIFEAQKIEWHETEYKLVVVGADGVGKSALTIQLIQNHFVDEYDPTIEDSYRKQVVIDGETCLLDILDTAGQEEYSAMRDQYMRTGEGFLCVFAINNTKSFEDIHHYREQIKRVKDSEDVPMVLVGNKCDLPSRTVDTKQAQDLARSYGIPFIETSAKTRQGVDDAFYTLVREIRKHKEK

SMILES | IC50 (KRAS-WT; [1]) | IC50 (KRAS-G12D; [2]) | IC50 (KRAS-G12V; [3]) | IC50 (AsPC-1 cells; ASPC1, 2 h, KRAS-G12D, 2 hours) | IC50 (KRAS-G12D; [4]) | IC50 (KRAS-G12V; [5]) | IC50 (AsPC-1 cells; ASPC1, KRAS-G12D, 2 hours) | IC50 (AsPC-1 cells; [6]) | IC50 (KRAS-WT; KRAS WT GNE IC50, nucleotide exchange) | IC50 (AsPC-1 cells; ASPC1, 2 hours compound incubation)
C[C@@]1(O)COCCN(c2nc(OC[C@@]34CCCN3C[C@H](F)C4)nc3sc4c(-c5c6c(cc7[nH]ncc57)C5CC5C6)nccc4c23)C1 (stereo partly drawn) [Ex-91, (6S)-4-(2-(((2R,7aS)-2-fluorotetrahydro-1H-pyrrolizin-7a(5H)-yl)methoxy)-8-(5,5a,6,6a-tetrahydro-1H-cyclopropa[3,4]cyclopen-ta[1,2-f]indazol-4-yl)pyrido[4′,3′:4,5]thieno [2,3-d]pyrimidin-4-yl)-6-methyl-1,4-oxazepan-6-ol] | 129 nM | 65 nM | 103 nM | 399 nM |  |  |  |  |  | 
C[C@@]1(O)COCCN(c2nc(OC[C@@]34CCCN3C[C@H](F)C4)nc3sc4c(-c5cccc(Cl)c5[Si](C)(C)C)nccc4c23)C1 [Ex-123, (S)-4-(8-(3-chloro-2-(trimethylsilyl)phenyl)-2-(((2R,7aS)-2-fluorotetrahydro-1H-pyrrolizin-7a(5H)-yl)methoxy)pyri-do[4′,3′:4,5]thieno[2,3-d]pyrimidin-4-yl)-6-methyl-1,4-oxazepan-6-ol] | 434 nM |  |  |  | 173 nM | 157 nM | 2060 nM |  |  | 
Cc1cc2[nH]ncc2c(-c2nccn3c2cc2nc(OC[C@@]45CCCN4C[C@H](F)C5)nc(N4CCOC[C@@](C)(O)C4)c23)c1C1CC1 [Ex-295, (S)-4-(9-(5-cyclopropyl-6-methyl-1H-indazol-4-yl)-2-(((2R,7aS)-2-fluorotetrahydro-1H-pyrrolizin-7a(5H)-yl)methoxy)pyrazino[1′,2′:1,5]pyrrolo[3,2-d]pyrimidin-4-yl)-6-methyl-1,4-oxazepan-6-ol] | 185 nM | 72.1 nM | 98.2 nM | 1900 nM |  |  |  |  |  | 
C[C@@]1(O)COCCN(c2nc(OC[C@]3(CN4CC5CC4(CF)C5)CC3(F)F)nc3sc4c(-c5c(C6(F)CC6)c(Cl)cc6[nH]ncc56)nccc4c23)C1 [Ex-259, (6S)-4-(8-(6-chloro-5-(1-fluorocyclopropyl)-1H-indazol-4-yl)-2-(((R)-2,2-difluoro-1-((1-(fluoromethyl)-2-azabicyclo[2.1.1]hexan-2-yl)methyl)cyclopropyl)metho-xy)pyrido[4′,3′:4,5]thieno[2,3-d]pyrimidin-4-yl)-6-methyl-1,4-oxazepan-6-ol] | 79.7 nM | 11.3 nM | 34.2 nM |  |  |  |  | 184 nM |  | 
C[C@@]1(O)COCCN(c2nc(OC[C@]3(CN4C[C@H]5COC[C@H]5C4)CC3(F)F)nc3sc4c(-c5c(C6(F)CC6)c(Cl)cc6[nH]ncc56)nccc4c23)C1 [Ex-235, (6S)-4-(8-(6-chloro-5-(1-fluorocyclopropyl)-1H-indazol-4-yl)-2-(((R)-2,2-difluoro-1-(((3aR,6aS)-tetrahydro-1H-furo[3,4-c]pyrrol-5(3H)-yl)methyl)cyclopropyl)metho-xy)pyrido[4′,3′:4,5]thieno[2,3-d]pyrimidin-4-yl)-6-methyl-1,4-oxazepan-6-ol] | 31.6 nM | 3.86 nM | 19.4 nM |  |  |  |  | 206 nM |  | 
C[C@@]1(O)COCCN(c2nc(OC[C@@]34CCCN3C[C@H](F)C4)nc3sc4c(-c5c6cc(F)ccc6cc6[nH]ncc56)nccc4c23)C1 [Ex-172, (6S)-4-(8-(6-fluoro-1H-benzo[f]indazol-4-yl)-2-(((2R,7aS)-2-fluorotetrahydro-1H-pyrrolizin-7a(5H)-yl)-methoxy)pyrido[4′,3′: 4,5]thieno[2,3-d]pyr-imidin-4-yl)-6-methyl-1,4-oxazepam-6-ol] |  |  |  |  | 34.1 nM | 49.2 nM |  |  | 72.4 nM | 252 nM
Cc1cc2[nH]ncc2c(-c2nccc3c2sc2nc(OC[C@@]45CCCN4C[C@H](F)C5)nc(N4CCOC[C@@](C)(O)C4)c23)c1C(C)(C)C#N [Ex-154, 2-(4-(2-(((2R,7aS)-2-fluorotetrahydro-1H-pyrrolizin-7a(5H)-yl)methoxy)-4-((S)-6-hydroxy-6-methyl-1,4-oxazepan-4-yl)pyrido[4′,3′:4,5]thieno[2,3-d]pyrimidin-8-yl)-6-methyl-1H-indazol-5-yl)-2-methylpropanenitrile] | 277 nM | 104 nM | 103 nM |  |  |  |  |  |  | 
C[C@@]1(O)COCCN(c2nc(OC[C@@]34CCCN3C[C@H](F)C4)nc3sc4c(-c5cccc(Cl)c5C5CC5)nccc4c23)C1 [Ex-122, (S)-4-(8-(3-chloro-2-cyclopropylphenyl)-2-(((2R,7aS)-2-fluorotetrahydro-1H-pyrrolizin-7a(5H)-yl)methoxy)pyri-do[4′,3′:4,5]thieno[2,3-d]pyrimidin-4-yl)-6-methyl-1,4-oxazepan-6-ol] | 908 nM | 404 nM | 280 nM |  |  |  |  |  |  | 
C=C1CN2CC(=C)CC2(COc2nc(N3CCOC[C@@](C)(O)C3)c3c(n2)sc2c(-c4c(C5CC5)c(Cl)cc5[nH]ncc45)nccc23)C1 [Ex-225, (6S)-4-(8-(6-chloro-5-cyclopropyl-1H-indazol-4-yl)-2-((2,6-dimethylene-tetrahydro-1H-pyrrolizin-7a(5H)-yl)methoxy)pyrido [4′,3′:4,5]thieno[2,3-d]pyrimidin-4-yl)-6-methyl-1,4-oxaze-pan-6-ol] | 39.9 nM | 12.7 nM | 21.5 nM |  |  |  |  |  |  | 
